From patent US3991187A, “Medicinal compositions and methods of use involving phosphoric acid esters” (Aktiebolaget Leo, priority 1971, dated 1976)

What was measured:
[1] = system: prostaglandins E1, E2 F1α and F2α; experiment: PG-inhibitory effect on the isolated gerbil colon; assay type: cell-based, Gerbils (Meriones unguiculatus); conditions: gerbil colon
Protocol: The PG-inhibitory effect of esters of the present invention on the gerbil colon are determined using the general technique described by Eakins, Miller & Karim (J. Pharm. Exp. Ther. 176:441, 1971). Gerbils (Meriones unguiculatus) of own breed, both sexes, weighing 50-80 g are used. The animal is stunned, colon ascendens immediately removed, and a 2-3 cm piece mounted in a 6 ml bath containing a modified de Jalon solution at 28° C and continuously oxygenated. Contractions of the organ are registered either isotonically or isometrically. When testing the inhibitory effect of a compound this is added to the bath 2 min before the addition of prostaglandin. […] Several concentrations of each antagonist are used.

[2] = system: Slow Reacting Substance (SRS); experiment: antagonism to Slow Reacting Substance on the isolated guinea-pig ileum (Mathe & Strandberg); assay type: cell-based
Protocol: The antagonism to Slow Reacting Substance (SRS) is determined on the isolated guinea-pig ileum as described by Mathe & Strandberg (Acta physiol. scand. 82:460, 1971). Purified SRS is obtained from cat paws perfused with compound 48/80 (Strandberg & Uvnas: Acta physiol. scand. 82:358, 1971). Sodium bis(4-(3-oxo-3-(2,4,6-trihydroxyphenyl)propyl)phenyl) phosphate was tested in this system in several concentrations.

PGE1 = experiment: prostaglandin-stimulated glycolysis of the prepubertal ovary (lactic acid production); assay type: cell-based, rats; conditions: compared with the compound giving 50% reduction at 50-100 μg/ml
Protocol: The action of esters of the present invention on the prostaglandin-stimulated glycolysis of the prepubertal ovary is investigated. The method used has been described in detail by Perklev & Ahren (Life Sciences Part I, 10:1387, 1971). In these experiments ovaries from prepubertal rats are removed and placed in Erlenmeyer flasks containing compounds of this invention dissolved in Krebs biocarbonate buffer. After that the ovaries have been preincubated during 60 min. at 37° C in this medium, they are blotted on filter paper and then washed for 2 min. in plain buffer. The ovaries are then transferred to a new incubation medium containing prostaglandins (PG) dissolved in Krebs bicarbonate buffer and incubated at 37° C for 2 hrs with continuous shaking. The ovarian glycolysis is then determined by measuring the concentration of lactic acid in the incubation medium. When polyphloretin phosphate (PPP) is present in the preincubation medium in a concentration of 500 μg/ml, the subsequent ovarian lactic acid production produced by PGE1 is reduced to about 50% of that obtained with ovaries preincubated in plain buffer. When sodium bis(4-(3-(2,4,6-trihydroxyphenyl)propyl)phenyl)phosphate is investigated in the same experimental system, a 50% reduction of the lactate production is seen when only 50-100 μg/ml of the compound is present in the preincubation medium.

Compound | selective inhibitory effects compared with PPP [1] | inhibition of SRS [2] | prostaglandin inhibiting activity (PGE1)
O=C(CCCc1ccc(OP(=O)([O-])Oc2ccc(CCCC(=O)c3ccc(O)cc3O)cc2)cc1)c1ccc(O)cc1O.[Na+] [sodium bis(4-(4-(2,4-dihydroxyphenyl)-4-oxobutyl)phenyl) phosphate] | equal to or superior to that of PPP | inhibit SRS | same order
COc1cc(OP(=O)([O-])Oc2ccc(C(=O)CCc3ccc(N)cc3)c(OC)c2)ccc1C(=O)CCc1ccc(N)cc1.[Na+] [sodium bis(4-(3-(4-aminophenyl)propionyl)-3-methoxyphenyl) phosphate] | equal to or superior to that of PPP | – | –
Nc1cccc(C(=O)CCc2ccc(OP(=O)(O)Oc3ccc(CCC(=O)c4cccc(N)c4)cc3)cc2)c1 [sodium bis(4-(3-aminophenyl)-3-oxypropyl)phenyl) phosphate] | equal to or superior to that of PPP | – | –
COc1ccc(C(=Cc2ccc(C(=O)[O-])cc2)C(=O)c2ccc(OP(=O)([O-])Oc3ccc(C(=O)C(=Cc4ccc(C(=O)[O-])cc4)c4ccc(OC)cc4)c(OC)c3)cc2OC)cc1.[Na+].[Na+].[Na+] [trisodium bis(4-(3-(4-carboxylatophenyl)-2-(4-methoxy-phenyl)-acryloyl)-3-methoxyphenyl) phosphate] | equal to or superior to that of PPP | inhibit SRS | same order
O=C([O-])COc1cccc(C(=O)CCc2ccc(OP(=O)([O-])Oc3ccc(CCC(=O)c4cccc(OCC(=O)[O-])c4)cc3)cc2)c1.[Na+].[Na+].[Na+] [trisodium bis(4-(3-(3-(carboxylatomethoxy)phenyl)-3-oxopropyl)-phenyl) phosphate] | equal to or superior to that of PPP | inhibit SRS | same order
Cc1cc(OP(=O)([O-])Oc2ccc(CCC(=O)c3ccccc3O)c(C)c2)ccc1CCC(=O)c1ccccc1O.[Na+] [sodium bis(4-(3-(2-hydroxyphenyl)-3-oxopropyl)-3-methylphenyl) phosphate] | equal to or superior to that of PPP | inhibit SRS | –
COc1ccc(CCC(=O)c2c(O)cccc2O)cc1OP(=O)([O-])Oc1cc(CCC(=O)c2c(O)cccc2O)ccc1OC.[Na+] [sodium bis(5-(3-(2,6-dihydroxyphenyl)-3-oxopropyl)-2-methoxyphenyl)phosphate] | equal to or superior to that of PPP | inhibit SRS | same order
O=C(CCc1cccc(OP(=O)([O-])Oc2cccc(CCC(=O)c3ccccc3O)c2)c1)c1ccccc1O.[Na+] [sodium bis(3-(3-(2-hydroxyphenyl)-3-oxopropyl)phenyl) phosphate] | equal to or superior to that of PPP | inhibit SRS | –
O=C(CCc1ccc(OP(=O)([O-])Oc2ccc(CCC(=O)c3ccccc3O)cc2)cc1)c1ccccc1O.[Na+] [sodium bis(4-(3-(2-hydroxyphenyl)-3-oxopropyl)phenyl)phosphate] | equal to or superior to that of PPP | inhibit SRS | –
Nc1ccccc1C(=O)CCc1ccc(OP(=O)([O-])Oc2ccc(CCC(=O)c3ccccc3N)cc2)cc1.[Na+] [sodium bis(4-(3-(2-aminophenyl)-3-oxopropyl)phenyl) phosphate] | equal to or superior to that of PPP | – | –
CCN(CC)c1ccc(C=C(C(=O)c2ccc(OP(=O)([O-])Oc3ccc(C(=O)C(=Cc4ccc(N(CC)CC)cc4)c4ccc(C)cc4)c(OC)c3)cc2OC)c2ccc(C)cc2)cc1.[Na+] [sodium bis(4-(3-(4-diethylaminophenyl)-2-(4-methylphenyl)acryloyl)-3-methoxyphenyl) phosphate] | equal to or superior to that of PPP | – | –
CN(C)C(=O)Cc1ccc(C(=O)CCc2cccc(OP(=O)([O-])Oc3cccc(CCC(=O)c4ccc(CC(=O)N(C)C)cc4)c3)c2)cc1.[Na+] [sodium bis(3-(3-(4-(N,N-dimethylcarbamoylmethyl)phenyl)-3-oxopropyl)phenyl)phosphate] | equal to or superior to that of PPP | – | –
CCN(CC)c1ccc(CCC(=O)c2cc(C)c(OP(=O)([O-])Oc3c(C)cc(C(=O)CCc4ccc(N(CC)CC)cc4)cc3C)c(C)c2)cc1.[Na+] [sodium bis(4-(3-(4-diethylaminophenyl)propionyl)-2,6-dimethylphenyl) phosphate] | equal to or superior to that of PPP | – | –
O=C([O-])c1ccc(CCC(=O)c2cccc(OP(=O)([O-])Oc3cccc(C(=O)CCc4ccc(C(=O)[O-])cc4)c3)c2)cc1.[Na+].[Na+].[Na+] [trisodium bis(3-(3-(4-carboxylatophenyl)propionyl)phenyl) phosphate] | equal to or superior to that of PPP | inhibit SRS | same order
COc1ccc(CCC(=O)c2cccc(OP(=O)([O-])Oc3cccc(C(=O)CCc4ccc(OC)c(CN(C)C)c4)c3)c2)cc1CN(C)C.[Na+] [sodium bis(3-(3-(3-dimethylaminomethyl-4-methoxyphenyl)propionyl)phenyl) phosphate] | equal to or superior to that of PPP | – | –
CCN(CC)c1ccc(CCC(=O)c2cccc(OP(=O)([O-])Oc3cccc(C(=O)CCc4ccc(N(CC)CC)cc4)c3)c2)cc1.[Na+] [sodium bis(3-(3-(4-diethylaminophenyl)propionyl)phenyl) phosphate] | equal to or superior to that of PPP | – | –
Nc1ccccc1C(=O)CCc1cccc(OP(=O)([O-])Oc2cccc(CCC(=O)c3ccccc3N)c2)c1.[Na+] [sodium bis(3-(3-(2-aminophenyl)-3-oxopropyl)phenyl) phosphate] | equal to or superior to that of PPP | – | –
COc1cc(CCC(=O)c2cccc(OP(=O)([O-])Oc3cccc(C(=O)CCc4ccc(O)c(OC)c4)c3)c2)ccc1O.[Na+] [sodium bis(3-(3-(4-hydroxy-3-methoxyphenyl)propionyl)phenyl) phosphate] | equal to or superior to that of PPP | inhibit SRS | –
Nc1ccc(C(=O)CCc2ccc(OP(=O)(O)Oc3ccc(CCC(=O)c4ccc(N)cc4)cc3)cc2)cc1 [sodium bis(4-(3-(4-aminophenyl)-3-oxopropy)phenyl) phosphate] | equal to or superior to that of PPP | – | –
COC(=O)Cc1ccc(C(=O)CCc2cccc(OP(=O)([O-])Oc3cccc(CCC(=O)c4ccc(CC(=O)OC)cc4)c3)c2)cc1.[Na+] [sodium bis(3-(3-(4-methoxycarbonylmethylphenyl)-3-oxo-propyl)phenyl) phosphate] | equal to or superior to that of PPP | – | –
O=C(C=Cc1ccc(O)cc1)c1c(O)cc(OP(=O)([O-])Oc2cc(O)c(C(=O)C=Cc3ccc(O)cc3)c(O)c2)cc1O.[Na+] [sodium bis(3,5-dihydroxy-4-(3-(4-hydroxyphenyl)-acryloyl)phenyl) phosphate] | – | inhibit SRS | same order
